Series [1] concerns Staphylococcus aureus Smith ATCC 13709. Briefly: In vivo activity on mouse systemic infection, S. aureus (ED50). The conditions noted are these: ATCC13709, sc, 120 h, mouse systemic infection (female CD1), subcutaneous, treatment 120 min after infection, survival on day 5, read-out: ED50 (cumulative subcutaneous dose). On the procedure: (§1) Invivo activity of Compound of formula (I), R =
(§2) CH2 SO2 NHCN (Example 1), in comparison with FCE 22101*,
(§3) on mouse^a systemic infections.
(§4) ^a) Female mice CD1 (Charles River, Italy), weighing 22 ± 2 g were
(§5) used, experimentally infected by an introperitoneal route. Eight animals
(§6) were used at each of the concentrations of compound tested, which were
(§7) administered subcutaneously (0.1 ml/10 g weight). The mortality was
(§8) recorded daily and the number of animals surviving on day 5 was used to
(§9) calculate the cumulative effective dose (ED50).
(§10) ^b) Cumulative subcutaneous dose.
(§11) ^c) Infecting organisms were: S. aureus, Staphylococcus aureus Smith
(§12) ATCC 13709; E. Coli, Escherichia coli G (clinical isolate); S. faecalis,
(§13) ^d) Minutes after infection.

Series [2] concerns Streptococcus faecalis 3817 (clinical isolate). As to the kind of experiment: In vivo activity on mouse systemic infection, S. faecalis (ED50). The conditions noted are these: Enterococcus faecalis, sc, 120 h, mouse systemic infection (female CD1), subcutaneous, treatment 60-180 min after infection, survival on day 5, read-out: ED50 (cumulative subcutaneous dose). As to the method: as §1, §2, §3, §4, §5, §6, §7, §8, §9, §10, §11, §12
Streptococcus faecalis 3817 (clinical isolate).
as §13

The test system of series [3] is Escherichia coli G (clinical isolate). Briefly: In vivo activity on mouse systemic infection, E. coli (ED50). The conditions noted are these: sc, 120 h, mouse systemic infection (female CD1), subcutaneous, treatment 30-90-360 min after infection, survival on day 5, read-out: ED50 (cumulative subcutaneous dose). As to the method:
as §1, §2, §3, §4, §5, §6, §7, §8, §9, §10, §11, §12, §13

The nature of series [4]: Acute toxicity in mice. The conditions noted are these: in vivo; mouse, I.D. (so in the source).

Some results are limits rather than exact numbers.

One may read the ED50 as the dose that gives a 50% effect, or the effect in half of the subjects. With `CC(O)C1C(=O)N2C(C(=O)O)=C(COC(N)=O)SC12` (stereo not shown) [FCE 22101, reference compound], the ED50 in series [1] is 0.7 mg/kg; in series [2] it was 80 mg/kg; in series [3] it was 10 mg/kg.

As usually defined, the LD50 is the dose expected to kill half of the subjects tested. A higher LD50 goes with a less toxic substance. On to `CC(O)C1C(=O)N2C(C(=O)O)=C(c3ccc(C[n+]4ccc(CS(=O)(=O)[N-]C#N)cc4)cc3)SC12` [Example 1, (5R,6S)-6-/1 (R)-Hydroxyethyl/-2-/4-/4-(N-cyanosulfamoylato) methyl-1-pyridinio/methylphenyl/penem-3-carboxylic acid], for which the figures for the ED50 in series [1], in series [2] and in series [3] were 0.16 mg/kg, 8.5 mg/kg and 0.65 mg/kg, respectively. Moreover, the LD50 in series [4] is > 3000 mg/kg.

These data come from patent US5480880A, “Penem derivatives” (Farmitalia Carlo Erba S.r.l., priority 1991, dated 1996).
